Data set [1] concerns Dengue virus 2. The data set is described as follows: Focus formation assay. The class given is cell-based. On the procedure:
The inhibition of Dengue virus 2 by DET4 peptides and DET4 coupled to DNA nanostructures was investigated by focus formation assay. Target cells were seeded in a 96-well plate the day before infection. In a separate 96 well plate 200-500 virus particles per well were incubated with or without DET4 monomers and DET4-coupled DNA Trimers in different concentrations for 2 hours followed by transfer of the mixtures to confluent target cell monolayers and incubation for 1 h at 37° C.
Subsequently fresh DMEM/2% (v/v) FBS containing 1.6% (w/v) Avicell was added to each well, covering the surface with microcrystalline cellulose to avoid spreading of the virus in the medium and enhancing formation of virus foci. Infected cells were incubated for 4 days followed by washing with PBS and fixing with 70% ethanol. Cells were rinsed with phosphate buffered saline, pH 7.4 (PBS) prior to immunostaining. Virus foci were detected using an Anti-flavivirus mouse monoclonal antibody that recognizes Dengue viruses, followed by horseradish peroxidase-conjugated goat anti-mouse immunoglobulin, and developed using TMB chromogen substrate. After washing, Virus foci were visible in the wells as blue spots that were counted for quantitative analysis. Counting results are presented in the table 1.

Data set [2] deals with Dengue virus. Particulars: read-out: virus entry into host cells inhibited by 50% (IC50); cited from earlier work.
The test system of data set [3] is inactivated influenza A virus. The class given is binding. To be noted: flow cell 4 vs flow cell 2.
The subject of data set [4] is influenza A infection of MDCKII cells. The data set is described as follows: Infection inhibition assay using MDCKII cells (cytopathic effect). The class given is cell-based. Here is the method: Also preferred is an infection inhibition assay. The infection inhibition assay using MDCKII cells and the MTT Test (or MTS). Inhibitor (peptide-conjugates DNA nanostructure) and virus are pre-incubated for 10-30 min at room temperature and added to cells (MDCKII for influenza, Vero E6 for Dengue). Viral infection of host cells can be tested after 24-72 h by either crystal violet staining or MTT/MTS reagents. Infected cells will slow down their metabolism and/or die after a certain time.
The inhibition of the influence virus by different DNA scaffolds together with PeB is shown. It can be seen from SPR data in FIG. 8 that the binding of virus particles is increased when more peptides are presented on the DNA scaffold. […] No binding to the virus particles is seen when they are not carrying any peptides.
FIG. 14A: Infection inhibition assay using MDCKII cells. This is a microscopic image of MDCKII cells. The cells form a healthy monolayer. No cytopathic effect (CPE) is seen.
FIG. 14b: Infection inhibition assay using MDCKII cells. This is a microscopic image of MDCKII cells infected with influenza viruses. The cells begin to die. A cytopathic effect (CPE) (rounding up and small aggregations of the cells) is clearly seen.
For orientation: Cytopathic effects are the visible damage that an infection or toxin causes in cultured cells.

For data set [5], the target named is influenza A hemagglutinin (Influenza A virus, UniProt P03437). To be noted: read-out: dissociation constant KD with hemagglutinin; cited from earlier work.
Data set [6] relates to influenza A viruses. Description: Hemagglutination inhibition assay (HAI). The class given is cell-based. Particulars: dilution series, constant virus and blood, FIGS. 11-13.

The source of these data is patent US20210145972A1, “NAN[…] A NUCLEIC ACID SCAFFOLD AND VIRUS-BINDING PEPTIDE MOIETIES” (FRAUNHOFER-GESELLSCHAFT ZUR FÖRDERUNG DER ANGEWANDTEN …, priority 2017, published 2021).

Entries after “also recorded” stand apart in the source; their conditions may differ. Ends that are not written are not given here.

As usually defined, the IC50 is the concentration that gives 50% inhibition. With AGVKDGKLDF [DET4], the “inhibition of Dengue virus infection of target cells, result in words” value in data set [1] is reported as “not able to inhibit viral infection”. Moreover, the values for the virus foci counted in data set [1] (10 μM), in data set [1] (50 μM) and in data set [1] (100 μM) were 53, 47 and 46, respectively. Besides, the half-inhibitory concentration (IC50) in data set [2] is 35 µM.
Take “DNA 4-arm structure with 3×PeB: mimics the N structure with a fourth arm bearing biotin, carrying 3×PeB (ARDFYDYDVFYYAMD; also: stated molecule is a DNA 4-arm structure with biotin arm carrying 3×PeB)”: the “dissociation time compared to the simple DNA double-strand (SPR)” value in data set [3] is reported as “slower dissociation time”.
For orientation: Kd means the equilibrium constant for the complex coming apart. As for “ARDFYDYDVFYYAMD [PeB, reference compound]”, in data set [4] (500 μM), the “inhibition of infection / cytopathic effect” value is listed as “more significant cytopathic effect; also recorded: not enough to inhibit the infection”. In addition, the Kd in data set [5] was 56.8 µM.

B1: DNA-PeB3: three-branched DNA scaffold of three DNA strands (SEQ ID NOs 2-4) with three PeB peptide moieties, one per strand end (conjugate)
DNA 1: ACTATCTTTGGTCTATTATCTTGAGTCATC
DNA 2: TAGTTGTGTGTGTGTTAGACCAAAGATAGT
DNA 3: GATGACTCAAGATAAACACACACACAACTA
modifications: DNA, backbone and methylation of C not given here; PeB peptide conjugated at one end of each strand
Consider B1, for which the results for the “inhibition of virus binding to RBCs (HAI), result in words” value in data set [6], in data set [6] (listed as N) and in data set [6] (listed as N_3×PeB) were “able to inhibit binding of the influenza A virus to red blood cells”, “concentration-dependent increase in binding” and “RBCs forming a dot on the bottom of the well can be seen for high concentrations; also recorded: hinder the viruses from binding to RBCs”, respectively. Moreover, the “inhibition of infection / cytopathic effect” value in data set [4] (11 μM, listed as N with 3 peptides) was “clear inhibition”; in data set [4] (11 μM, listed as Trimer “N” with 3×PeB), “Virus infection was inhibited”.
